Patent US20040197268A1, “Method of imaging amyloid deposits using substituted rhodanine derivatives” (priority 1999, published 2004)
“And” between values parts separate entries of the source, which are not always exact repeats. Identical values can stand only once.

Tests used:
[1] = target: T1, Aβ(1-42) (Homo sapiens, UniProt P05067); experiment: BATYM Assay (Aβ(1-42) aggregation, Thioflavin T fluorescence); format: biochemical; details: Aβ 1-42 final concentration 100 μM, PBS pH 7.4, 37° C., 1 day, ThT fluorescence
T1 construct: Required Aβ(1-42)(California Peptide) was dried from its hexafluoroisopropanol (HFIP) stock solution; purchased California Peptide
T1 sequence (P05067 672-713 limits assumed): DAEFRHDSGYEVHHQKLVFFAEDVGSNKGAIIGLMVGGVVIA
Method in brief: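 HFIP-dried Aβ(1-42), redissolved in DMSO/PBS pH 7.4 and filtered, was incubated at 100 μM final with compound (2% DMSO) for 1 day at 37° C. Aggregation read by ThT (30 μM, glycine-NaOH pH 8.5) fluorescence, ex 440/em 485 nm; inhibition corrected for compound blank, IC50 by curve fit, two experiments in triplicate.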

[2] = target: T2, Aβ(1-40) (Homo sapiens, UniProt P05067); experiment: BASST (Beta-Amyloid Self-Seeding, ThioflavinT), inhibitors of self-seeded amyloid fibril growth; format: biochemical; details: 30 μM soluble Aβ(1-40), pH 7.5, 37° C., 3 to 5 hours, thioflavin T fluorescence
T2 construct: Soluble Aβ(1-40) peptide (Bachem, Torrance, Calif.); purchased Bachem, Torrance, Calif
T2 sequence (P05067 672-711 limits assumed): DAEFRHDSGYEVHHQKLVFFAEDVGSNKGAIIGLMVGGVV
Method in brief: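 Self-seeded soluble Aβ(1-40) at 30 μM was mixed on ice with compound (3-fold dilutions, top 100 μM final; DMSO <1%) in pH 7.5 phosphate buffer with 1 M urea. After 10 min on ice, mixtures were incubated 3 to 5 hours at 37° C. Fibril growth was read as thioflavin T fluorescence (ex 440/em 485).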

[3] = target: T2, Aβ(1-40); experiment: BASSR (Beta-Amyloid Self-Seeding Radioassay), inhibitors of self-seeded amyloid fibril growth; format: biochemical; details: 30 μM soluble Aβ(1-40) + 125I-labeled Aβ(1-40), pH 7.5, 37° C., 3 to 5 hours, filtration
Method in brief: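 Self-seeding growth of fibrils from 30 μM soluble human Aβ(1-40) plus ^125I-labeled Aβ(1-40) was run in 50 mM sodium phosphate pH 7.5, 100 mM NaCl, 1 M urea, with compound as serial 3-fold dilutions from 100 μM final, DMSO <1%. After 10 min on ice and 3 to 5 hours at 37° C., fibrils were filter-collected and radioactivity counted.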

[4] = target: T3, beta amyloid peptide Aβ(1-40) (Homo sapiens, UniProt P05067); experiment: BAPA (Beta-Amyloid Peptide Aggregation), pH 6.0; format: biochemical; details: Aβ(1-40) 33 μM, pH 6.0, 2 to 4 hours at room temperature, filtration
T3 construct: 0.5 mg/mL AP (140) peptide in 20% HFIP+0.1 μL/assay radioiodinated ^125I Aβ(1-40)
T3 sequence (P05067 672-711 limits assumed): as above
Method in brief: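 HFIP-monomerised Aβ(1-40) with ^125I Aβ(1-40) tracer in 50 mM phosphate pH 6.0, DMSO <1%, incubated 2 to 4 h at room temperature. Aggregates collected by 0.2 μm filtration and counted by scintillation, background-corrected.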

IC50 [1] [µM]	IC50 [2]	IC50 [3]	melting point [°C]	IC50 [4] [µM]	SMILES
3.03	2 µM	> 100 µM	226 to 227	> 60	CCCCN(CCCC)c1ccc(/C=C2\SC(=S)N(Cc3cc(=O)c(O)co3)C2=O)cc1 [Example 33, (Z) 5-(4-Dibutylamino-benzylidene)-3-(5-hydroxy-4-oxo-4H-pyran-2-ylmethyl)-2-thioxo-thiazolidin-4-one]
2.38	2 µM	> 100 µM	253	> 60	CCCC1CCN(c2ccc(/C=C3\SC(=S)N(Cc4cc(=O)c(O)co4)C3=O)cc2)CC1 [Example 34, (Z) 3-(5-Hydroxy-4-oxo-4H-pyran-2-ylmethyl)-5-[4-(4-propyl-piperidin-1-yl)-benzylidene]-2-thioxo-thiazolidin-4-one]
3.3	1 µM	> 100 µM	201	> 60	CCCC1CCN(c2ccc(/C=C3\SC(=S)N(CC(=O)NS(=O)(=O)c4ccccc4)C3=O)cc2)CC1 [Example 36, (Z) N-(2-{4-Oxo-5-[4-(4-propyl-piperidin-1-yl)-benzylidene]-2-thioxo-thiazolidin-3-yl}-acetyl)benzenesulfonamide]
3.83	0.4 µM	50 µM	254	> 60	CCCC1CCN(c2ccc(/C=C3\SC(=S)N(CC(=O)NS(C)(=O)=O)C3=O)cc2)CC1 [Example 37, (Z) N-(2-{4-Oxo-5-[4-(4-propyl-piperidin-1-yl)-benzylidene]-2-thioxo-thiazolidin-3-yl}-acetyl)methanesulfonamide]
2.54	0.7 µM and 0.1 µM	10 µM and 5 µM	220 to 221	66	O=C(CN1C(=O)/C(=C/c2ccc(N3CC[C@@H]4CCCC[C@H]4C3)cc2)SC1=S)NS(=O)(=O)c1ccc(F)cc1 [Example 38, (Z) 4-Fluoro-N-(2-{5-[(4aS,8aR)-4-(octahydro-isoquinolin-2-yl)-benzylidene]-4-oxo-2-thioxo-thiazolidin-3-yl}-acetyl)-benzenesulfonamide]
2.86	1 µM and 0.1 µM	> 100 µM and 21 µM	197	37	CCCC1CCN(c2ccc(/C=C3\SC(=S)N(CC(=O)NS(=O)(=O)c4ccc(F)cc4)C3=O)cc2)CC1 [Example 39, (Z) 4-Fluoro-N-(2-{4-oxo-5-[4-(4-propyl-piperidin-1-yl)-benzylidene]-2-thioxo-thiazolidin-3-yl}-acetyl)-benzenesulfonamide]
